Experimental data from US20080220056A1, “Treatment for liver disease” (UNIVERSITY OF SOUTHAMPTON, priority 2002, published 2008).

Tests used:
[1] = tested on: rat hepatocytes; assay: Rat hepatocyte viability by attachment and trypan blue exclusion; assay type: cell-based; details: 50 μmol/L gliotoxin, four hours
Protocol: Rat hepatocytes were isolated by collagenase perfusion essentially as previously described. (Harvey et al., Biochemical J., (1998) 331:273-281). Hepatocytes were cultured as outlined for hepatic stellate cells except that they were initially seeded onto collagen coated plates in William's medium E supplemented with 10% fetal calf serum and 1 μg/mL insulin for the first 2 hours.
Cells were treated with gliotoxin dissolved in DMSO vehicle (added to medium from a 2000-fold molar concentrated stock). Control cells received DMSO vehicle only (i.e., 0.05% vol/vol). All other additions to culture medium were made from concentrated stocks dissolved in DMSO or by direct addition to culture medium. Protein contents of wells were determined using the Lowry assay (Lowry et al., J. Biol. Chem., (1951)193: 265-275).
The effect of various compounds on cell viability and attachment was determined. Viability of rat hepatocytes as judged by attachment and 0.1% (wt/vol) trypan blue exclusion after four hours treatment with: […]

[2] = tested on: carbon tetrachloride model of liver fibrosis; assay: Carbon tetrachloride (in vivo) model of liver fibrosis, single gliotoxin injection; set-up: species or system rat; details: for Serum ALP / Serum ALT: killed 24 hours after gliotoxin
Protocol: Rats were randomly sorted into groups and treated with 2 mL CCl4:olive oil (1:1 [vol/vol])/kg body weight by intraperitoneal injection twice weekly to cause liver fibrosis. Control animals were treated with 1 mL olive oil/kg body weight by intraperitoneal injection. Gliotoxin was administered at up to 3 mg gliotoxin/kg body weight by intraperitoneal injection. Gliotoxin was dissolved in dimethyl sulfoxide (DMSO) as a vehicle, and control animals received DMSO alone.
At the required time, rats were killed by carbon dioxide asphyxiation and tissues removed for analysis. Serum was prepared and analyzed for alkaline phosphatase and alanine aminotransferase activities essentially as previously described. (Wright et al., Biochem. Pharmacol., (1992) 43:237-243) Histochemical staining of formalin-fixed liver sections with H&E, Sirius red, and immunochemical staining for α-smooth muscle actin were performed essentially as previously described (Iredale et al.,—1998—supra)
The effect of a single injection of gliotoxin on α-smooth muscle actin liver immunostaining after treatment for seven weeks with carbon tetrachloride was then determined. One day after the final injection of carbon tetrachloride, rats were administered gliotoxin and killed after a further day.
The effect of a single injection of gliotoxin on liver TUNEL staining after treatment for seven weeks with carbon tetrachloride was measured. One day after the final injection of carbon tetrachloride, rats were administered gliotoxin and then killed after a further day. Control animals received DMSO alone in place of gliotoxin. Liver sections from the rats were TUNEL stained with or without the incorporation of dUTP in the staining protocol. Sections were then counterstained with hematoxylin.
The effect of a single injection of gliotoxin on liver sirius red staining after treatment for seven weeks with carbon tetrachloride was then determined. As before, one day after the final injection of carbon tetrachloride, rats were administered gliotoxin and killed after a further day.

[3] = tested on: rat hepatic stellate cells; assay: Hepatic stellate cell apoptosis by acridine orange staining and counting (cycloheximide or serum deprivation), rat cells; assay type: cell-based
Protocol: Human hepatic stellate cells were extracted from the margins of normal human liver resected for colonic metastatic disease as previously described (Iredale et al., Clin. Sci., (1995) 89: 75-81). Rat hepatic stellate cells were extracted from normal rat liver by Pronase and collagenase digestion and purified by centrifugal elutriation as described (Arthur et al., J. Clin. Invest., (1989) 84:1076-1085). Extracted hepatic stellate cells were cultured on plastic until they were activated to a myofibroblastic phenotype after 7 to 10 days. Human and rat hepatic stellate cells were used for experiments after activation in primary culture or before fourth passage. Cells were cultured in Dulbecco's modified Eagle's medium in the presence of 16% fetal calf serum and antibiotics.
Apoptosis of hepatic stellate cells was induced by absolute serum deprivation, cycloheximide treatment (Issa et al., Gut (2001) 48: S48-S57), or exposure to nerve growth factor as previously described (Trim et al., Am. J. Pathol., (2000) 156, 1235-1243). Hepatic stellate cells were cultured in 24-well tissue culture plates. Rat and human hepatic stellate cells were exposed to proapoptotic stimuli with and without recombinant TIMP-1 (Biogenesis, Poole, UK) and other manipulations as detailed below. Following a 4 hour incubation at 37° C., nuclear morphology was assessed by adding acridine orange to each well (final concentration 1 μg/ml) and observing the cells under blue fluorescence. The total number of apoptotic bodies was counted, and any apoptotic bodies floating in the supernatant were included by racking up the objective lens. The total number of cells per field was counted, and an apoptotic index was calculated. Each condition was performed in duplicate, and three high power fields were counted for each well. […] To examine for autocrine effects, hepatic stellate cells were incubated for 18 hours with azide-free polyclonal neutralizing antibodies to TIMP-1 and a nonimmune IgG control (Santa Cruz Biotechnology, Inc., Santa Cruz, Calif.), and responses were assessed by acridine orange staining and counting.
Apoptosis was assessed by acridine orange staining. […] A normal cell lies adjacent to the apoptotic body. This technique was used to determine the percentage of apoptotic hepatic stellate cells following exposure to cyclohexamide in the presence or absence of TIMP-1. Hepatic stellate cells were exposed to 50 μM cyclohexamide and 0, 1, 10, 100 or 200 ng/ml of TIMP-1. Cells treated with serum alone were used as controls. […] Bovine serum albumin, used as a carrier for the TIMP-1 had no antiapoptotic effect.

[4] = single gliotoxin injection 0.3 mg/kg i.p., CCl4 twice weekly seven weeks
[5] = single gliotoxin injection 0.3 mg/kg i.p., no CCl4 (olive oil seven weeks)
[6] = single gliotoxin injection 3 mg/kg i.p., CCl4 twice weekly seven weeks
[7] = single gliotoxin injection 3 mg/kg i.p., no CCl4 (olive oil seven weeks)

## CN1C(=O)[C@]23CC4=CC=C[C@H](O)[C@H]4N2C(=O)[C@@]1(CO)SS3 [gliotoxin]
[1]
  hepatocytes that do not exclude 0.1% (wt/vol) trypan blue: approximately 90%
[1]; 10 ng/mL TNF-α with 10 μmol/L cycloheximide
  hepatocyte attachment to the substratum / membrane integrity: significant reductions in cell attachment to the substratum
[2]; single dose of 3 mg/kg body wt
  reduction in number of α-smooth muscle actin-positive cells in CCl4 treated rat liver: 57%
[2]; [4]
  Liver α-sma staining (number of α-sma-positive cells): 35 ± 11.4
  Sirius red staining (mid intralobular μm): 9 ± 2.3 μm
  Serum ALP: 790 ± 128 μ/mL
  Serum ALT: 1310 ± 342 μ/mL
[2]; [5]
  Liver α-sma staining (number of α-sma-positive cells): 2.5 ± 0.70
  Sirius red staining (mid intralobular μm): 0 μm
  Serum ALP: 336 ± 48 μ/mL
  Serum ALT: 59 ± 4 μ/mL
[2]; [6]
  Liver α-sma staining (number of α-sma-positive cells): 16 ± 6.4
  Sirius red staining (mid intralobular μm): 7 ± 3.6^£ μm
  Serum ALP: 755 ± 295 μ/mL
  Serum ALT: 1740 ± 1100 μ/mL
[2]; [7]
  Liver α-sma staining (number of α-sma-positive cells): 1.2 ± 0.24
  Sirius red staining (mid intralobular μm): 0 μm
  Serum ALP: 269 ± 25 μ/mL
  Serum ALT: 50 ± 5 μ/mL
[2]; single gliotoxin injection after seven weeks CCl4
  TUNEL-positive cells in liver regions staining for α-smooth muscle actin: increase in the number of TUNEL-positive cells
[2]; single injection of gliotoxin at 3 mg/kg after seven weeks CCl4
  fibrosis on blinded examination of sirius red stained liver sections: significantly reduced fibrosis
[2]; single injection of gliotoxin to control or carbon tetrachloride treated rats
  change in serum liver enzyme levels: did not result in any significant change in serum liver enzyme levels

## TIMP-1: recombinant tissue inhibitor of matrix metalloproteases 1 (Biogenesis)
[3]; 50 μM cycloheximide, 4 hours, TIMP-1 1-200 ng/ml
  apoptosis induced by cycloheximide (acridine orange): significantly reduces apoptosis of activated hepatic stellate cells induced by cycloheximide exposure in a dose-dependent manner
[3]; 24 hour incubation in serum-free conditions
  apoptosis in serum-free conditions (acridine orange): identical effect
[3]; TIMP-1 10 ng/ml, cycloheximide
  reduction in apoptotic morphology by acridine orange staining and counting: 30%
[3]; TIMP-1 100 ng/ml, cycloheximide
  reduction in apoptosis by acridine orange staining and counting: 50%
[3]; rat HSC, protein at 142.5 ng/ml
  apoptosis induced by cycloheximide (acridine orange): inhibited apoptosis induced by cycloheximide exposure
